Measured values reported in the NIST ThermoML archive (doi:10.1016/j.jct.2012.03.034).

Experiment: xn = mol fraction of the nth substance listed
Settings: 101 kPa, Liquid; for speed of sound: Linear variable-path acoustic interferometer; for mass density: Vibrating tube method; for viscosity: dual vibrating plate viscometer, AandD Co. Ltd Model SV-10

CC(=O)O.CCN(CC)CC [triethylammonium acetate] + CN1CCCC1=O
Settings | mass density, 298.15 K [kg/m3] | mass density, 303.15 K [kg/m3] | speed of sound, 298.15 K [m/s] | speed of sound, 303.15 K [m/s] | viscosity, 298.15 K [mPa·s] | viscosity, 303.15 K [mPa·s]
x1 = 0.0138 | 1026.09 | 1024.21 | 1564 | 1555 | 1.61 | 1.52
x1 = 0.0302 | 1026.34 | 1024.48 | 1559 | 1555 | 1.76 | 1.84
x1 = 0.0813 | 1026.88 | 1024.64 | 1556 | 1553 | 2.79 | 2.67
x1 = 0.117 | 1026.93 | 1024.37 | 1554 | 1554 | 3.21 | 3.1
x1 = 0.1733 | 1026.39 | 1023.53 | 1555 | 1555 | 3.79 | 3.42
x1 = 0.2751 | 1023.97 | 1020.86 | 1560 | 1561 | 4.02 | 3.62
x1 = 0.3189 | 1022.57 | 1019.42 | 1566 | 1566 | 3.83 | 3.55
x1 = 0.3865 | 1019.96 | 1016.89 | 1578 | 1579 | 3.58 | 3.18
x1 = 0.5133 | 1015.18 | 1012.16 | 1603 | 1602 | 3.4 | 2.7
x1 = 0.6561 | 1010.89 | 1007.69 | 1648 | 1645 | 4.71 | 3.42
x1 = 0.8181 | 1009.29 | 1005.54 | 1714 | 1713 | 10.14 | 8.21
x1 = 0.926 | 1011.5 | 1006.58 | 1776 | 1769 | 17.25 | 14.2
x1 = 0.9642 | 1012.97 | 1007.74 | 1799 | 1797 | 20.16 | 17
x1 = 1 | 1015.86 | 1009.58 | 1840 | 1824 | 24.12 | 19.6
